From patent publication US11311537B2, “Diagnosis and treatment of lymphoproliferative disorders with PARP inhibitors” (UNIVERSITY OF MIAMI, priority 2016, dated 2022)
Entries after “also recorded” stand apart in the source; their conditions may differ.

Assays:
[1] = system: DLBCL LMO2+ cell lines (OCI-Ly8, OCI-Ly19, DOHH2); experiment: Colony formation assay, olaparib in combination with genotoxic agents (Combination Index); type: cell-based, human
Source text: Only colonies with 50 or more cells where counted. *P<0.001, Two-way ANOVA. […] CI, Combination Index (CI<1 indicates a synergistic effect).

[2] = system: MOLT16 (LMO2-positive) versus Jurkat (LMO2-negative); experiment: Annexin V cell death analysis in T-ALL cell lines; type: cell-based, human; details: LMO2 expressing versus LMO2 negative T-ALL cell line, 4 days
Source text: (§1) FIG. 7A, quantification of cell proliferation via MTS assay in MOLT16 (LMO2+) and Jurkat (LMO2−) T cell lymphoblastic leukemia cell lines exposed to different concentrations of olaparib during 4 days. *P<0.001, Two-way ANOVA. FIG. 7B, quantification of the flow cytometer results for Annexin V staining after 4 days in presence or absence of indicated concentrations of olaparib for cell death analysis in the indicated T cell lymphoblastic leukemia cell lines.

DLBCL LMO2+ cell lines [3] = experiment: Colony-forming assay; type: cell-based, human; details: olaparib pretreatment 48 h, colonies after 14 days
Experimental: Colony-forming assay: Clonogenic assays were performed as described elsewhere (McDonnell, Oncogene, 31(32), 3733-3740 (2012)). In total, 500 cells were pretreated with indicated olaparib concentration (0; 1; 10; 100; 1,000; and 10,000 nM) for 48 h and seeded in triplicate in MethoCult conditioned media (Stem Cell Technologies, Vancouver, Canada). After 14 days, macroscopic colonies were stained with iodonitrotetrazolium chloride (Sigma Aldrich) overnight and counted. Only colonies with 50 or more cells were counted.

[4] = system: primary human DLBCL tumors expressing or not LMO2; experiment: MTS assay in primary human tumor samples; type: cell-based; details: LMO2- and reactive follicular hyperplasia
Source text: FIGS. 6A-6C: Olaparib and doxorubicin show synergy to kill primary DLBCL cells expressing LMO2. FIG. 6A, MTS assay to evaluate the effect of exposure to different concentrations of olaparib alone or in combination with doxorubicin in primary human DLBCL tumors expressing or not LMO2 and a Reactive follicular hyperplasia (LMO2−). CI, Combination Index (CI<1 indicates a synergistic effect). FIG. 6B, Western blots showing LMO2 level in human DLBCL cell lines (OCI-Ly1 (LMO2 negative), OCI-Ly19 (LMO2 positive), human primary lymphoblasts (HCC1187)), and primary human tumors (LMO2+, DLBCL expressing LMO2, LMO2−, DLBCL not expressing LMO2) and RFH-Reactive follicular hyperplasia not expressing LMO2. GAPDH was used as loading control. FIG. 6C, immunohistochemistry (IHC) for LMO2 in primary human DLBCL samples used for FIGS. 6A and 6B. H&E, hematoxylin and eosin staining.
Primary tumors were obtained from DLBCL or no DLBCL patients following appropriate consent of the IRB approved protocol and single cell suspension generated using standard techniques.
(§2) Proliferation and cell cycle studies: Cell proliferation was studied using cell titer 96 Aqueous Non-radioactive cell proliferation (MTS) kit from Promega. This assay was performed following manufacturer's instructions. For cell cycle studies, cells were fixed with 70% cold ethanol and incubated overnight at 4° C. Next, cells were washed once with 1×PBS and incubated with 50 μg/ml Propidium Iodide (Invitrogen) and RNAse (0.1 mg/ml) for 30 min. Cells were analyzed using a flow cytometer (BD FACS Canto-II analyzer).

[5] = system: DLBCL LMO2+ cell lines (OCI-Ly8, OCI-Ly19 and DOHH2); experiment: MTS cell proliferation assay; type: cell-based, human; details: OCI-Ly8, OCI-Ly19, DOHH2 compared with IMR90, HCC1187, OCI-Ly1, U2932; p<0.001 by ANOVA
Experimental: as §2

[6] = system: DLBCL LMO2- and control cell lines (OCI-Ly1, U2932, IMR90, HCC1187); experiment: MTS cell proliferation assay; type: cell-based, human
Experimental: as §2

[7] = system: OCI-Ly19 xenografts (LMO2 positive); experiment: DLBCL subcutaneous xenograft model; type: in vivo, NOD/SCID mice; details: for lifespan (survival): olaparib 50 mg/kg IP, 21 days, vs control group
Source text: (§3) Subcutaneous xenograft tumors were generated by human DLBCL cells (OCI-Ly19 or OCI-Ly1) injected into NOD/SCID (5 million cells/mouse). Treatment started when tumor reached 100 mm^3 (˜10 days post-injection). FIG. 5A, Kaplan-Meier plots: OCI-Ly19 (n=per group: n=8 CTL, n=9 olaparib, n=5 RCHOP, n=5 RCHOP+olaparib) and OCI-Ly1 (n=5 per group). Mice were euthanized when the tumor volume reached 1500 mm^3 in accordance with the institutional guidelines. Statistical analysis was done by the log rank (Mantel-Cox) test. FIG. 5B, Ex vivo analyses of the tumors. The xenografts were generated as described above. Shown are representative FACS analyses of the OCI-Ly19 tumor cells exposed or not to olaparib during 3 days and stained with Annexin V and propidium iodide (PI). FIG. 5C, Tunnel assays in OCI-Ly19 tumor samples exposed or not to olaparib.
(§4) All mice studies were conducted after approval of IACUC protocol. For DLBCL xenograft model, five-week-old female NOD/SCID mice (Harlan's) were subcutaneously injected with DLBCL cell line OCI-LY19 (5×10^6 cells/mouse) into the right flank. Once tumors reached 100 mm^3, mice were subdivided into two experimental groups (n=5-7/group). One group received buffer solution (1×PBS) and the other group received Olaparib (50 mg/kg; LC Labs, MA) for 21 consecutive days via IP injection. In separate experiments, one group received buffer solution (1×PBS), second group received Olaparib (50 mg/kg; LC Labs, MA), third group RCHOP (Rituximab 20 mg/kg, i.v. for a single dose on D1; cyclophosphamide, 40 mg/kg, D1; doxorubicin, 3.3 mg/kg, i.v. D1; vincristine, 0.5 mg/kg, i.v. D1; and prednisone, 0.2 mg/kg, every day by oral gavage on D1-5 and fourth group combination of Olaparib with RCHOP. Tumor bearing mice were observed every two days for tumor volume and weight loss was measured using standard calipers. Once the tumor volume exceeded 1500 mm^3 or the mouse […] dropped more than 10% total body weight, the mice were sacrificed.

[8] = system: OCI-Ly1 xenografts (LMO2 negative); experiment: DLBCL subcutaneous xenograft model; type: in vivo, NOD/SCID mice; details: olaparib 50 mg/kg
Source text: as §3, §4

OCI-Ly8 = experiment: MTS cell proliferation assay, olaparib IC50; type: cell-based; details: Homo sapiens; OCI-Ly8, DLBCL LMO2+
Experimental: as §2

OCI-19 = experiment: MTS cell proliferation assay, olaparib IC50; type: cell-based; details: Homo sapiens; OCI-19, DLBCL LMO2+
Experimental: as §2

DOHH2 = experiment: MTS cell proliferation assay, olaparib IC50; type: cell-based; details: Homo sapiens, DOHH-2; DOHH2, DLBCL LMO2+
Experimental: as §2

OCI-Ly8 cells = experiment: gammaH2AX DNA damage foci (immunofluorescence); type: cell-based, human; details: OCI-Ly8, 24 hs exposure
Experimental: Immunofluorescence studies: For studying DNA break repair, DNA double-strand breaks were induced either by exposing the cells to ionization radiation (IR). DLBCL cell lines were exposed to gamma ray source at 10 Gy (cobalt 60 irradiator) and U2OS cells were exposed to 4 Gy. Alternatively double-stranded breaks were induced by adding Doxorubicin (12.5 ng/ml) to the culture during 16-20 hs. Cells were attached on a glass slide pre-coated with poly-lysine for 30 min. Cells were fixed with 4% Para-formaldehyde in 1×PBS for 15 min at room temperature. After fixing, cells were permeabilized using blocking solution (1 mg/ml BSA, 5% Goat/Horse normal serum, 0.5% TritonX-100) for 30 min. Cells were incubated with primary antibodies diluted in blocking solution for 1 h. Cells were washed three times with 1×PBS 5 min each. After washing, cells were incubated with secondary antibodies diluted in blocking solution, Alexa Fluor 488 or Alexa Fluor 594 for 30 min. Cells were then washed with 1×PBS twice for 5 min each wash. Nuclear DNA was visualized via DAPI (1 μg/ml) (Sigma Aldrich) staining for 15 min. Finally, cells were washed with 1×PBS for 15 min to remove excess stain and mounted with Prolong Gold antifade reagent (Invitrogen). Images were acquired using a Leica DMI6000 B Fluorescence microscope.

[9] = breast cancer treated patients; cited from earlier work
DLBCL LMO2+ cell lines [10] = experiment: Cell death analysis by Annexin V / propidium iodide flow cytometry; type: cell-based, human; details: 4 days, 1 μM olaparib
Source text: FIG. 4A, MTS assay to evaluate effect of olaparib on the proliferation of human lymphoblasts (HCC1187), human primary lung fibroblasts (IMR90) and human lymphomas cells (LMO2 negative (U2932, OCI-Ly1) and LMO2 positive (DOHH2, OCI-Ly8, OCI-Ly19)). *P<0.0001. Two-way ANOVA. FIG. 4B, quantification of colony formation assays in OCI-Ly1, DOHH2, VaL and Val (LMO2 KO)-LMO2-null Val cells exposed to different concentrations of olaparib. Only colonies with 50 or more cells where counted. *P<0.001, Two-way ANOVA. FIG. 4C, quantification of the flow cytometer results for Propidium Iodide (PI) and Annexin V staining after 4 days in presence or absence of 1 μM olaparib for cell death analysis in the indicated lymphoma cell lines. FIG. 4D, representative pictures of colony formation assay quantified in FIG. 4B using DOHH2 cells. […] CI, Combination Index (CI<1 indicates a synergistic effect). FIG. 4F, quantification of γH2AX DNA damage foci in OCI-Ly8 cells exposed to or not exposed to olaparib during 24 hs.

[11] = system: MOLT16 (LMO2-positive) versus Jurkat (LMO2-negative); experiment: MTS cell proliferation assay in T-ALL cell lines; type: cell-based, human; details: LMO2 expressing versus LMO2 negative T-ALL cell line, 4 days, p<0.001 by ANOVA
Source text: as §1, §2

With `N.N.O=C([O-])C1(C(=O)[O-])CCC1.[Pt+2]` [carboplatin] the “synergy with olaparib (carboplatin)” value ([1]; olaparib + carboplatin, OCI-Ly19 and DOHH2) was “showed synergy”.

With `O=C(c1cc(Cc2n[nH]c(=O)c3ccccc23)ccc1F)N1CCN(C(=O)C2CC2)CC1` [olaparib] the cell death [2] was “induces cell apoptosis”, the cell death ([2]; listed as Olaparib) was “increase in cell death” and the colony formation (DLBCL LMO2+ cell lines [3]) was “pronounced olaparib-mediated decrease in colony formation”. For the same compound, the “proliferation capacity of primary tumor samples, olaparib alone” value [4] was “only affected the proliferation capacity of the DLBCL sample expressing LMO2 protein”, the “proliferation capacity of primary tumor samples, olaparib in combination with doxorubicin” value [4] was “only affected the proliferation capacity of the DLBCL sample expressing LMO2 protein” and the “proliferation capacity of primary tumor samples, olaparib in combination with doxorubicin” value ([4]; listed as Olaparib) was “show synergy”. The synergy with doxorubicin ([1]; olaparib + doxorubicin, three DLBCL LMO2+ cell lines, preliminary studies) was “synergistic”, the cell proliferation [5] was “decreases proliferation; also recorded: statistically significant (p<0.001 by ANOVA) decrease in cell proliferation” and the “effect on DLBCL LMO2- and control cell lines” value [6] was “no or minimal effect”. For the same compound, the “cell death in tumors (Annexin V, PI, Tunnel assay)” value ([7]; OCI-Ly19 tumors, ex vivo analysis) was “increase in cell death”, the “lifespan (survival)” value ([7]; OCI-Ly19 xenografts) was “increased the lifespan” and the “lifespan (survival)” value ([7]; OCI-Ly19 xenografts, listed as Olaparib) was “prolongs survival”. For the same compound, the “lifespan in combination with RCHOP” value ([7]; OCI-Ly19 xenografts, olaparib + RCHOP vs RCHOP) was “increased the life-span”, the “tumor growth in vivo” value ([7]; human DLBCL cells expressing LMO2, murine xenograft) was “slows growth” and the “lifespan (survival)” value [8] was “did not produce any effect”. For the same compound, the IC50 (OCI-Ly8) was 800 nM, the IC50 (OCI-19) was 130 nM and the IC50 (DOHH2) was 120 nM. The “DNA damage (γH2AX foci)” value (OCI-Ly8 cells) was “increased DNA damage”, the “concentration observed in the blood” value [9] was 2 µM and the “cell death via apoptosis” value (DLBCL LMO2+ cell lines [10]) was “induces cell apoptosis; also recorded: increased cell death via apoptosis”. For the same compound, the cell proliferation [11] was “decreases proliferation” and the cell proliferation ([11]; listed as Olaparib) was “statistically significant (p<0.001 by ANOVA) decrease in cell proliferation”.
